Here are results for 1 compound from paper PMC6657668, “Porcine Beta-Defensin 2 Provides Protection Against Bacterial Infection by a Direct Bactericidal Activity and Alleviates Inflammation via Interference With the TLR4/NF-κB Pathway” (Frontiers in Immunology, 2019).

Where a SMILES comes first, the peptide text is derived from it.

Experiment [1] deals with RAW 264.7 cells. Kind of experiment: Cytokine levels of RAW 264.7 cells after treatment with S. Typhimurium (ELISA). The following applies: S. Typhimurium MOI = 10:1, 1 h, n = 6. Type of experiment: cell-based, mouse. The protocol:
RAW 264.7 cells and RAW 264.7 cells stably expressing PBD-2 were pre-treated with S. Typhimurium at MOI = 10:1 for 1 h or with LPS (1 μg/ml) for 16 h, washed with PBS twice and incubated with RPMI 1640 that contained PBS or PBD-2 (10 μg/mL) for 16 h. RAW 264.7 cells stably expressing PBD-2 were maintained in RPMI 1640 that contained PBS for 16 h (n = 6 for each group). The expression levels of proinflammatory cytokines in the cell culture supernatant were determined through ELISA in accordance with the manufacturer's instruction.

Experiment [2] concerns NF-κB. Briefly: mRNA level of NF-κB in RAW 264.7 cells (RT-PCR). Type of experiment: cell-based, mouse. The note with it: LPS 1 μg/ml with PBD-2 10 μg/mL, 4 h; n = 6. The procedure: The cDNA of the RAW 264.7 cells treated with LPS (1 μg/ml) alone or together with PBD-2 (10 μg/mL) for 4 h (n = 6 each group) was used as a template by using the primers NF-κB-01 ([…]) and NF-κB-02 ([…]) and the primers GAPDH-01 and GAPDH-02 for the housekeeping gene GAPDH to detect the expression level of NF-κB. The relative expression level of NF-κB is shown as 2^−ΔCt (mean ± SEM), where ΔCt = Ct NF−κB−CtGAPDH. The protocol consisted of 40 replication cycles. The Ct values above 34 cycles were considered non-detectable.

The format of experiment [3] is binding, Escherichia coli O55:B5. The note with it: ITC, 25°C; PBD-2 0.75 mM in syringe, LPS in cell (0.010 to 0.050 mM; Figure S6: 0.050 mM).
Experiment [4] relates to BSA. Briefly: Interaction with BSA (control), far-Western blot. It counts as binding, bovine. The note with it: PBD-2 10 μg/ml, 37°C, 2 h. The procedure: TLR4 and BSA proteins as a control were subject to SDS-PAGE and electro-transferred onto a PVDF membrane. The PVDF membrane was blocked with 10 μg/ml BSA in PBST at 37°C for 2 h, washed five times with PBST and incubated with PBST that contained 10 μg/ml PBD-2 or 10 μg/ml BSA as a control at 37°C for 2 h. After the membranes were washed, the PVDF membrane was incubated with anti-PBD-2 antisera (with a titer 1:500,000) at 37°C for 2 h and washed five times with PBST. The membrane was then incubated with the secondary antibodies, namely, goat anti-mouse IgG (# AS003, ABclonal®, Wuhan, China), at 37°C for 2 h and washed five times with PBST. Lastly, immune-reactive bands were detected using an ECF Western blot system (Tanon 5200 Multi, Shanghai, China).

For experiment [5], the system named is TLR4. Briefly: Interaction of PBD-2 with TLR4 in RAW 264.7 cells, coimmunoprecipitation. It counts as binding, mouse. The note with it: PBD-2 1, 10, 30, and 50 μg/ml, 16 h, captured with PBD-2 antisera. The procedure: A Co-IP assay was conducted using a Co-IP kit (# abs955, Absin®, Shanghai, China) in accordance with the manufacturer's instructions. In brief, RAW 264.7 cells were cultured in dishes of 10 cm in diameter. The cells (1 × 10^7) were treated with different concentrations of PBD-2 (1, 10, 30, and 50 μg/ml) for 16 h and lysed using a lysis buffer that contained protease inhibitors […]. The soluble faction of the cell lysate was collected after centrifugation at 14,000 × g at 4°C for 10 min. Afterwards, 2 μl of PBD-2 antisera (with titer 1:500,000) or 2 μl of mouse IgG antisera (# sc-2025, Santa Cruz®, CA, USA) as control were incubated with 200 μg of the cell lysate at 4°C for 12 h. Protein A/G beads (5 μl) were added and incubated at 4°C for 12 h. The precipitates with the immune complexes were collected by centrifugation at 12,000 × g at 4°C for 1 min. The beads were washed with a wash buffer. TLR4 in the precipitates was detected with Western blot by using an antibody against TLR4 (# sc-293072, Santa Cruz®, Santa Cruz, CA, USA).

Experiment [6] relates to dextran sodium sulfate (DSS) in mice. The note with it: ref [33], cited from earlier work. The source says:
The antibiotic resistance of pathogenic bacteria has become a global threat ([30]). Defensins are natural peptides secreted by many species and implicated in resisting bacterial infection ([31]). PBD-2 is one of the defensins expressed in pigs. […] The invasion of S. Typhimurium can increase the expression of PBD-2 in porcine epithelial cells ([32]). […] PBD-2 also improves the growth perf ... || The colitis caused by S. Typhimurium mainly results from intestinal mucosal inflammation after the breakage of intestinal epithelial barrier by pathogens ([26]). […] AMPs have various structures which may lead to their different act ...

In experiment [7] the test system is S. Typhimurium. Kind of experiment: Body weight loss of mice infected with S. Typhimurium. The note with it: PBD-2 expressed in TG mice; oral 2.5 × 10^8 CFU; days 1-5; n = 7; vs WT.
Protocol: (§1) Four infection experiments were conducted to determine the resistance to S. Typhimurium of the TG mice. For body weight measurements, 7 WT and 7 TG mice were orally administered with 2.5 × 10^8 CFU of S. Typhimurium, and the body weight of each mouse was measured on days 1, 2, 3, 4, and 5 after infection. For the detection of the tissue weight ratios, bacterial loads in tissues and tissue lesions after S. Typhimurium infection, 9 WT and 8 TG mice were orally administered with 2.5 × 10^8 CFU of S. Typhimurium. The spleen, caecum and body weights of the mice were weighed at 24 h post-infection. The bacterial loads in the tissues were also measured ([26]). The spleen and caecum were weighed and homogenized in cold PBS at a ratio of 4 ml per gram of tissue and coated plates. The bacterial numbers in the homogenates were counted by serially diluting the homogenates and spreading on plates. Caeca were harvested for histopathological analysis by using the methods described above. The intestinal damage, including epithelial damage, submucosal oedema, and neutrophil aggregation, was observed.
For experiment [8], the system named is S. Typhimurium. Briefly: Histopathology of caecum of mice infected with S. Typhimurium. The following applies: PBD-2 expressed in TG mice; oral 2.5 × 10^8 CFU; 24 h post-infection; H&E; vs WT.
Protocol: as §1
Setting [9] is: PBD-2 expressed by RAW 264.7–PBD-2 cells.

Take `CC[C@H](C)[C@H](NC(=O)[C@@H]1CSSC[C@@H]2NC(=O)[C@@H]3CCCN3C(=O)[C@H](CO)NC(=O)[C@H](Cc3ccccc3)NC(=O)[C@H](CC(N)=O)NC(=O)[C@@H]3CSSC[C@H](NC(=O)[C@H]([C@@H](C)O)NC(=O)CNC(=O)[C@H](CCC(=O)O)NC(=O)[C@H]([C@@H](C)CC)NC(=O)[C@H](CCCNC(=N)N)NC(=O)[C@H](CC(N)=O)NC(=O)[C@H](Cc4ccccc4)NC(=O)[C@H](CC(C)C)NC(=O)[C@@H]4CCCN4C2=O)C(=O)N[C@@H](Cc2ccc(O)cc2)C(=O)N[C@@H](CO)C(=O)NCC(=O)N[C@@H](CCCCN)C(=O)N[C@@H](C)C(=O)N[C@@H](CCCCN)C(=O)N[C@@H](CSSC[C@H](NC(=O)[C@@H](NC(=O)[C@H](Cc2ccc(O)cc2)NC(=O)[C@H](Cc2c[nH]cn2)NC(=O)[C@@H](N)CC(=O)O)[C@@H](C)CC)C(=O)N[C@@H](C)C(=O)N[C@@H](CCCCN)C(=O)N[C@@H](CCCCN)C(=O)NCC(=O)NCC(=O)N[C@@H]([C@@H](C)O)C(=O)N3)C(=O)N1)C(=O)N[C@@H](CCCNC(=N)N)C(=O)O` [PBD-2, Porcine beta-defensin 2] (HELM PEPTIDE1{D.H.Y.I.C.A.K.K.G.G.T.C.N.F.S.P.C.P.L.F.N.R.I.E.G.T.C.Y.S.G.K.A.K.C.C.I.R}$PEPTIDE1,PEPTIDE1,5:R3-34:R3|PEPTIDE1,PEPTIDE1,12:R3-27:R3|PEPTIDE1,PEPTIDE1,17:R3-35:R3$$$V2.0; N-terminus and C-terminus assumed): in experiment [1] (setting [9]), the “level of IL-1β” value is given as “significantly lower in the RAW 264.7–PBD-2 cells than in the RAW 264.7 cells after S. Typhimurium treatment (p < 0.01)”, the “level of IL-6” value is given as “significantly lower in the RAW 264.7–PBD-2 cells than in the RAW 264.7 cells after S. Typhimurium treatment (p < 0.01)” and the “level of TNF-α” value is on record as “significantly lower in the RAW 264.7–PBD-2 cells than in the RAW 264.7 cells after S. Typhimurium treatment (p < 0.01)”. For the same compound, in experiment [1] (synthetic PBD-2 10 μg/mL, 16 h), the “secretion of IL-1β” value is “significantly inhibited the secretion of TNF-α, IL-6, and IL-1β after S. Typhimurium treatment (p < 0.05)”; the “secretion of IL-6” value was “significantly inhibited the secretion of TNF-α, IL-6, and IL-1β after S. Typhimurium treatment (p < 0.05)”; the “secretion of TNF-α” value was “significantly inhibited the secretion of TNF-α, IL-6, and IL-1β after S. Typhimurium treatment (p < 0.05)”. The “mRNA levels of NF-κB after LPS induction” value in experiment [2] was “reduce the mRNA levels of NF-κB after LPS induction (p < 0.01)”. Also, the “binding to LPS” value in experiment [3] is “did not bind to LPS”. Further, the “binding to BSA on PVDF membrane” value in experiment [4] is recorded as “not to BSA”. Also, the “coimmunoprecipitation of TLR4 with PBD-2” value in experiment [5] is listed as “could react with the antibody against TLR4”. Moreover, in experiment [6] (mice), the “mucosal damage caused by DSS” value is reported as “alleviate mucosal damage caused by dextran sodium sulfate (DSS) in mice”. For the same compound, in experiment [6], the “DSS-induced inflammation, NF-κB signaling” value is “suppresses the DSS-induced inflammation by suppressing the NF-κB signaling pathway” and the “inflammation in DSS-induced colitis” value is given as “attenuates inflammation in DSS-induced colitis”. In experiment [7], the body weight loss entry was “less degree of body weight loss from day 2 onwards (p < 0.05)”. In addition, in experiment [8], the “intestinal damage of the caecum (epithelial damage and submucosal oedema)” value was “significantly milder intestinal damage (epithelial damage and submucosal oedema)”; the “neutrophil aggregation in the caecum” value is given as “less neutrophil aggregation compared with that of the WT mice”.
